{"source": "patent US9492428B2", "about": "“Compounds, compositions, pharmaceutical compositions, and methods of use” (University of Louisville Research Foundation, Inc., priority 2011, dated 2016)", "type_in_all_cases": "cell-based, human", "key": {"[1]": {"test_system": "Prostate cancer cells (DU145 or PC3) or a non-malignant epithelial cells (RWPE-1)", "assay": "MTT cell proliferation assay, 5 days, cancer versus non-malignant cells", "conditions": "after five days of treatment, FIG. 8C", "procedure": "FIG. 8. Cell proliferation assay. (A) DU145 or PC3 prostate cancer were plated at a density of 1,500 cells per well in 96-well plates and incubated 18 hours at 37° C. to allow adherence. They were untreated or treated by addition of different concentrations of compound I-1 (which were added directly to the medium) or vehicle (DMSO), and proliferation was measured using a 3-(4,5-dimethylthiazol-2-yl)-2,5-diphenyltetrazolium bromide MTT assay after 3 days of treatment. Points, mean of triplicate normalized samples to vehicle sample; bars, SE. (B) GI50 after 3 days of treatment. (C) Prostate cancer cells (DU145 or PC3) or a non-malignant epithelial cells (RWPE-1) were plated at a density of 1,000 cells per well in 96-well plates and incubated 18 hours at 37° C. to allow adherence. They were untreated or treated by addition of different concentrations of compound I-1 (added directly to the medium) or vehicle (DMSO), and proliferation was by MTT assay after 5 days of treatment. Points, mean of triplicate normalized samples to vehicle sample; bars, SE.\nGeneral Experimental Procedure. Compound I-1 was isolated as described in Example Set 1, above. For samples of compound I-1 used in Example Set 2, HPLC and NMR indicated a purity of at least 95%. All experiments described in Example Set 2 were repeated at least two or three times. […]"}, "DU145 cells [2]": {"test_system": "DU145 cells", "assay": "Clonogenic assay in DU145", "procedure": "FIG. 7. Clonogenic assays in prostate cancer cells treated with compound I-1. Prostate cancer cells, DU145 (A) or PC3 (B), were plated at very low density in 6-well plates and incubated 18 h at 37° C. Cells were treated by addition of various concentrations of compound I-1 or with an equivalent volume of vehicle (DMSO), or were left untreated. After 10 days of treatment, cells were washed with cold PBS, fixed with paraformaldehyde, and stained with crystal violet solution.\nClonogenic Assay. Cells in fresh complete medium were plated at very low density (3×10^2 per well) into six-well plates for 18 h. After complete adhesion, cells were treated with compound I-1 by adding directly to the medium to give the concentration indicated in the figures. Cells were allowed to grow until visible colonies formed (10 days). Cell colonies were fixed with 4% paraformaldehyde in PBS (phosphate-buffered saline), stained with 0.25% crystal violet in 25% methanol, washed and air-dried."}, "DU145 cells [3]": {"test_system": "DU145 cells", "assay": "Flow cytometric analysis of cell cycle (propidium iodide) in DU145", "procedure": "FIG. 9. Effect of compound I-1 at 5 μM on cell cycle and apoptosis. Cells were then harvested by trypsinization. (A) For flow cytometric analysis of cell cycle parameters, cells were fixed, and stained with propidium iodide. Each histogram indicates the percent of cells in G1, S, and G2/M phases of the cell cycle. Data were gated to exclude apoptotic cells for these calculations. (B) For apoptosis detection, cells were incubated with FITC-conjugated Annexin V and propidium iodide. Flow cytometric analysis was performed and the histogram for each sample was split into four quadrants to indicate: viable cells (lower left quadrant), apoptotic cells (lower right quadrant), necrotic cells (upper left quadrant), and necrotic/late apoptotic cells (upper right quadrant).\nFIG. 10. Flow cytometric analysis of cell cycle parameters. DU145 prostate cancer cells were incubated for 24 h (A) or for 48 h (B) in the presence of 10 μM compound I-1 or vehicle (DMSO), or without additive (untreated). Cells were then harvested by trypsinization, fixed, and stained with propidium iodide for analysis by flow cytometry. Each histogram indicates the percent of cells in G1, S, and G2/M phases of the cell cycle. Data were gated to exclude apoptotic cells for these calculations. A small population of aneuploid cells with >4n DNA content, which became apparent in the cells treated with compound I-1, is also indicated (percentage underlined).\nFlow cytometric assays of cell cycle and cell death. Cells in fresh complete medium were plated (2×10^5 per well) into six-well plates for 18 h. After complete adhesion, cells were treated as indicated in the figures and harvested by trypsinization. For cell cycle distribution, cells were fixed, and stained with propidium iodide using the Cycle Test Plus kit (Becton Dickinson). For cell death detection, cells were stained with Annexin-V-FITC and propidium iodide using the Apoptosis Detection Kit (BD Biosciences), according to the manufacturer's instructions. Cells were then analyzed by flow cytometry using a FACScalibur cytometer (BD Biosciences, Mountain View, Calif.) and FlowJo program (Tree Star, Inc., Ashland, Oreg.)."}}, "data": [{"molecule": "C[C@@H]1CC[C@H]2C3C(O[C@]4([C@]5(O)CC6(C)C(=O)OC5C[C@@]6(C)O)CC[C@@]31O4)[C@H]1O[C@]13CC=CC(=O)[C@]23C", "note": "(stereo partly shown) [I-1]", "values": [{"measurement": "inhibition of cancer cell growth as compared to non-malignant cell growth", "setting": "[1]", "value": "selectivity inhibit cancer cell growth"}, {"measurement": "effect on colony formation", "setting": "DU145 cells [2]; 2.5 μM, 10 days", "value": "Inhibitory effects"}, {"measurement": "concentration that blocked the capacity of single cancer cells to generate colonies", "setting": "DU145 cells [2]; 10 days of treatment", "value": "≥ 5", "unit": "µM"}, {"measurement": "cell cycle parameters", "setting": "DU145 cells [3]; 5 μM", "value": "not perturbed"}, {"measurement": "population of aneuploid cells that contain more than 4n DNA", "setting": "DU145 cells [3]; 10 μM", "value": "additional peak to the right of the G2/M peak"}, {"measurement": "fraction of cells in phase", "setting": "DU145 cells [3]; 10 μM, 24 h", "value": 8, "unit": "%"}, {"measurement": "proportion of cells in G2/M phases", "setting": "DU145 cells [3]; 10 μM, 24 h", "value": 49, "unit": "%"}, {"measurement": "proportion of cells in S phase", "setting": "DU145 cells [3]; 10 μM, 24 h", "value": 37, "unit": "%"}, {"measurement": "fraction of cell in G2/M", "setting": "DU145 cells [3]; 10 μM, 48 h", "value": 66, "unit": "%"}, {"measurement": "percentage of cells in S phase", "setting": "DU145 cells [3]; 10 μM, 48 h", "value": "decreased"}]}]}
